Tests used:
SH-SY5Y cells [1] = assay: H2O2-induced neuronal apoptosis after pre-treatment; type: cell-based; settings: for toxic effects in SH-SY5Y cells: SUL 0.63 μM, L-DOPA 25 μM
Method: It was also evaluated whether the combination could have synergistic effects against neuronal apoptosis induced by H2O2, an oxidant agent in the CNS. In particular, apoptosis is measured 15 h later than 3 h treatment with H2O2 (300 μM).

neurons = settings: prolonged SUL treatment, in vitro; cited from earlier work
[2] = preliminary phase I study (Shapiro et al. 2006); cited from earlier work
SH-SY5Y cells [3] = assay: L-DOPA-induced neurotoxicity, pulse/chase treatment, Annexin-V/propidium iodide double staining

| SMILES | toxic effects in SH-SY5Y cells (SH-SY5Y cells [1]) | H2O2-induced apoptosis after L-DOPA pre-treatment (SH-SY5Y cells [1]; pre-treatment 24 h, L-DOPA 25-100 μM tested, effect at more than 50 μM, H2O2 300 μM 3 h, read 15 h later, FIG. 4) | effect against 1 methyl-4-phenyl-1,2,3,6-tetrahydropyridine (neurons) | protection of neurons against 6-hydroxydopamine (neurons) | protection of neurons against H2O2 damage (neurons) | toxicity in humans [2] | L-DOPA-induced apoptosis, post-treatment (SH-SY5Y cells [3]; SUL 2.5 μM added after L-DOPA (400 μM) treatment, FIG. 3) | L-DOPA-induced apoptosis, co-treatment (SH-SY5Y cells [3]; SUL 0.63-2.5 μM co-treated with L-DOPA 400 μM, FIG. 2) |
| --- | --- | --- | --- | --- | --- | --- | --- | --- |
| N[C@@H](Cc1ccc(O)c(O)c1)C(=O)O [L-DOPA, 3,4-dihydroxyphenylalanine] | did not show any toxic effects | significantly decreased H2O2-induced apoptosis | – | – | – | – | – | – |
| C[S+]([O-])CCCCN=C=S (stereo not drawn) [SUL, 4-(methylsulfinyl)butyl isothiocyanate] | did not show any toxic effects | – | does not show any effect | protects neurons | protects neurons | absence of toxicity | significant decrease of apoptosis | dose-dependent inhibitory effect |

— patent US20100260737A1, “COMBINATION BETWEEN AN ISOTHIOCYANATE AND LEVODOPA FOR PARKINSON'S DISEASE TREATMENT” (priority 2007, published 2010)
